From US20090270309A1, “USE OF LACTOFERRIN FRAGMENTS AND HYDROLYSATES” (priority 2005, published 2009) come the findings set out here.

This assay deals with primary rat osteoblasts. Nature of the assay: Proliferation of primary rat osteoblasts (cell counts and [3H]-thymidine incorporation). Type of assay: cell-based. To be noted: for Mitogenic / proliferative effect on primary osteoblasts (in words): significantly different from control by ANOVA, post hoc Dunnett's test. How it is done: Osteoblasts were isolated by collagenase digestion from 20-day fetal rat ? viously described by Lowe, et al. (1991). Calvariae were dissected aseptically, and the frontal and parietal bones were stripped of their periosteum. Only the central portions of the bones, free from suture tissue, were collected. The calvariae were treated twice with phosphate buffered saline (PBS) containing 3 mM EDTA (pH 7.4) for 15 minutes at 37° C. in a shaking water bath. After washing once in PBS, the calvariae were treated twice with 3 ml of 1 mg/ml collagenase for 7 minutes at 37° C. After discarding the supernatants from digestions I and II, the calvariae were treated further two times with 3 ml of 2 mg/ml collagenase (30 mins, 37° C.). The supernatants of digestions III and IV were pooled, centrifuged, and the cells washed in Dulbecco's modified Eagle's medium (DME) with 10% fetal calf serum (FCS), suspended in DME/10% FCS, and placed in […] flasks. The cells were incubated under 5% CO2 and 95% air at 37° C. Confluence was reached by 5-6 days, at which time the cells were subcultured. After trypsinization using trypsin-EDTA (0.05%/0.53 mM), the cells were rinsed in minimum essential medium (MEM) with 5% FCS and resuspended in a fresh medium, then seeded at 5×10^4 cells/ml in 24-well plates (0.5 ml cell suspension per well, i.e., 1.4×10^4 cells/cm^2).
Proliferation studies (cell counts and thymidine incorporation) were performed both in actively growing and non-actively growing cell populations. To produce actively growing cells, sub-confluent populations (24 h after subculturing) were placed in fresh MEM containing 1% FCS and a lactoferrin fragment sample (see Table 1 below). To produce non-actively growing cells, sub-confluent populations were placed in serum-free medium with 0.1% bovine serum albumin plus a lactoferrin fragment sample. Cell numbers were analyzed at 6, 24, and 48 hours after the addition of lactoferrin fragment samples. The cell numbers were determined after detaching cells from the wells by exposure to trypsin/EDTA (0.05%/0.53 mM) for approximately 5 minutes at 37° C. Counting was performed in a haemocytometer chamber. [3H]-thymidine incorporation into actively growing and non-actively growing cells was assessed by pulsing the cells with [3H]-thymidine (1 μCi/well) two hours before the end of the incubation. The experiment was terminated at 6, 24, or 48 hours by washing the cells in MEM containing cold thymidine followed by the addition of 10% trichloroacetic acid. The precipitate was washed twice with ethanol:ether (3:1), and the wells desiccated at room temperature. The ? redissolved in 2 M KOH at 55° C. for 30 min, neutralized with 1 M HCl, and an aliquot counted for radioactivity. For both cell counts and thymidine incorporation, each experiment at each time point was performed at least 4 different times using experimental groups consisting of at least 6 wells.
The osteogenic response seen above was compared with that of insulin-like growth factor 1 (IGF-1), a well-recognized osteoblast mitogen. The magnitudes of response of the lactoferrin fragments were similar to IGF-1 in the same osteoblast cell culture system.
A general note: Dividing cells build labelled thymidine or BrdU into new DNA.

Where [1] appears, read: primary rat osteoblasts, Table 1.

FKCRRWQWRMKKLGA [SEQ ID NO. 17]: the “Mitogenic / proliferative effect on primary osteoblasts (in words)” value (“Mitogenic / proliferative effect” below) (figure legends) is “mitogenic to primary osteoblasts”. Further, the “Dose (ug/mL): minimum dose range that stimulates osteoblast proliferation” value (“Dose (ug/mL)” below) under setting [1] was 0.1 to 10 µg/mL.
Turning to “FKCRRWQWRMKKLGAPSITCVRRAFA [SEQ ID NO. 14]”, the “Concentration at which osteoblast proliferation is significantly different from control” value (figure legends, post hoc Dunnett's test P<0.05 or P<0.01) was found to be 0.01 µg/mL. Also, the “Mitogenic / proliferative effect” value (figure legends) is listed as “mitogenic to primary osteoblasts”. Besides, the “Dose (ug/mL)” value under setting [1] was 0.01 to 1.0 µg/mL.
Take RRWQWRMKKLG [SEQ ID NO. 16]: the “Dose (ug/mL)” value under setting [1] was in the range of 0.1 to 10 µg/mL.
As to “WKLLSKAQEKFGKNKS (listed as Bos taurus) [SEQ ID NO. 33]”, the “Mitogenic / proliferative effect” value (figure legends) is “mitogenic to primary osteoblasts”. Moreover, under setting [1], the “Dose (ug/mL)” value amounted to 100 µg/mL. The “Dose (M): minimum dose range that stimulates osteoblast proliferation” value (primary rat osteoblasts, Table 1, printed as orders of magnitude, e.g. 10^−7/8) is listed as 10^−5 M.
